Patent US6486190B1, “5-(2-imidazolinylamino)-benzimidazole derivatives, their preparation and their use as α-adrenoceptor agonists with improved metabolic stability” (The Procter & Gamble Company, priority 1997, dated 2002)
Like-named read-outs stand apart in the source and are kept apart here.

Key:
[1] = precision cut liver slice assay (metabolic stability, N-methylation); type: in vitro ADME; conditions: for metabolic N-methylation (N-methyl metabolites): in these assays: precision cut liver slice assay and pharmacokinetic studies in primates
Procedure: Metabolic stability of the compounds described above is evaluated in vitro in a precision cut liver slice assay and in vivo in pharmacokinetic studies in primates. The precision cut liver slice assay is a well recognized, validated in vitro model to study xenobiotic metabolism in animal species and humans. (See Ekins, S. “Past, present, and future applications of precision-cut liver slices for in vitro xenobiotic metabolism.” (Department of Medicine and Therapeutics, University of Aberdeen, UK.) Drug-Metab-Rev. (November, 1996) Vol. 28, No. 4: pp. 591-623). […] The assay provides data on the biotransformations taking place within intact hepatocytes of the species of interest. Thus the full compliment of phase I and phase II metabolic enzymes are available to metabolize the drug as is the case in vivo.

[2] = test system: alpha-2 adrenoceptors; test: alpha-2 adrenergic activity and selectivity (receptor binding affinities and in vitro functional potencies); type: biochemical
Procedure: (§1) The pharmacological activity and selectivity of these compounds can be determined using published test procedures. […] (See, e.g., The Alpha-2 Adrenergic Receptors, L. E. Limbird, ed., Humana Press, Clifton, N.J.) The following in vivo assays are typically conducted in rodents or other species. Central nervous system activity is determined by measuring locomotor activity as an index of sedation. (See, e.g., Spyraki, C. & H. Fibiger, “Clonidine-induced Sedation in Rats: Evidence for Mediation by Postsynaptic Alpha-2 Adrenoreceptors”, Journal of Neural Transmission, Vol. 54 (1982), pp. 153-163). Nasal decongestant activity is measured using rhinomanometry as an estimate of nasal airway resistance. […] Antiglaucoma activity is determined by measuring intraocular pressure. […] Antidiarrheal activity is determined by measuring the ability of the compounds to inhibit prostaglandin-induced diarrhea. […] Efficacy in treating irritable bowel syndrome is determined by measuring the ability of compounds to reduce the stress-induced increase in fecal output. […] Antiasthma activity is determined by measuring the effect of the compound on bronchoconstriction associated with pulmonary challenges such as inhaled antigens. […] Activity in cough is determined by measuring the number and latency of the cough response to respiratory challenges such as inhaled citric acid. […]

[3] = test system: central nervous system; test: central nervous system activity (locomotor activity as an index of sedation); set-up: species or system rodents; conditions: in vivo
Procedure: as §1

[4] = pharmacokinetic studies in primates: parent and N-methyl metabolite in urine after oral dosing; type: in vivo, cynomolgus monkeys
Procedure: For the pharmacokinetic studies, the compounds are administered orally to cynomolgus monkeys and measurements of administered benzimidazole compounds and corresponding N-methyl metabolites are made using 100 μL aliquots of urine collected over various time-periods post-dose. Typically, a chemical homolog or stable-isotope-labeled internal standard is added to each sample and then diluted 100× in water. Ten μL of prepared sample is then analyzed by gradient HPLC, with tandem mass spectrometry detection. Single ion reaction monitoring schemes are employed to selectively detect the test compound, its N-methyl metabolite (if present), and the internal standard.

SMILES | metabolic N-methylation (N-methyl metabolites) [1] | metabolism / methyl metabolite formation ([1]; precision cut liver slice assay) | alpha-2 adrenergic activity (pharmacological profile) [2] | CNS activity [3] | N-methylation in primates [4] | metabolism / methyl metabolite formation [1]
Cc1c(NC2=NCCN2)ccc2[nH]cnc12 [5-(2-Imidazolinylamino)-4-methylbenzimidazole] | N-methyl metabolites were found | rapidly metabolized | very potent and selective alpha-2 adrenergic agonists | very low CNS activity | – | –
CCc1c(NC2=NCCN2)ccc2[nH]cnc12 [4-ethyl-5-(2-imidazolinylamino)benzimidazole] | N-methyl metabolites were found | – | selective alpha-2 adrenergic agonist | – | rapidly and extensively N-methylated | –
Cc1c(N=C2NCCN2)cc(C#N)c2[nH]cnc12 [Example 1, 7-Cyano-5-(2-imidazolinylamino)-4-methylbenzimidazole] | – | – | – | very low CNS activity | – | no evidence of the methyl metabolite
